From patent US10131652B2, “Pyrimidinyloxy benzene derivatives as herbicides” (E. I. DU PONT DE NEMOURS AND COMPANY, priority 2014, dated 2018)

How the values were obtained:
Format in all cases: in vivo
[1] = test system: blackgrass (Alopecurus myosuroides); assay: Test B postemergence plant response
Summary of the method: (§1)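 Injury was assessed visually about 10 days after treatment, scored from 0 (no effect) to 100 (complete control) by comparison with untreated controls. Test chemicals had been applied postemergence to potted plants at the one- to two-leaf stage, grown in loam soil and sand in a greenhouse.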

[2] = test system: galium (catchweed bedstraw, Galium aparine); assay: Test B postemergence plant response
Summary of the method: as §1

kochia (Kochia scoparia) = assay: Test B pre-/postemergence plant response
Summary of the method: (§2)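 Greenhouse pots, loam/sand soil; compound formulated with surfactant in non-phytotoxic solvent. Preemergence soil spray and postemergence spray at 1–2 leaf stage run simultaneously. Visual injury, 0–100, about 10 days post-treatment.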

[3] = test system: barnyardgrass (Echinochloa crus-galli); assay: Test B pre-/postemergence plant response
Summary of the method: as §2

corn (Zea mays) = assay: Test B pre-/postemergence plant response
Summary of the method: as §2

[4] = test system: Italian ryegrass (Lolium multiflorum); assay: Test B pre-/postemergence plant response
Summary of the method: as §2

[5] = test system: giant foxtail (Setaria faberii); assay: Test B pre-/postemergence plant response
Summary of the method: as §2

[6] = test system: pigweed (Amaranthus retroflexus); assay: Test B pre-/postemergence plant response
Summary of the method: as §2

[7] = test system: wheat (Triticum aestivum); assay: Test B pre-/postemergence plant response
Summary of the method: as §2

[8] = test system: ragweed (common ragweed, Ambrosia elatior); assay: Test B pre-/postemergence plant response
Summary of the method: as §2

rice (Oryza sativa) = assay: Test C flooded paddy test plant response; conditions: Flood, 250 g ai/ha; scale of 0 to 100 where 0 is no effect and 100 is complete control; 13 to 15 days
Summary of the method: (§3)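 Two-leaf stage → flood to 3 cm → compound into water → hold depth, greenhouse 13–15 d → visual score vs controls (0 none, 100 complete control).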

[9] = test system: barnyardgrass (Echinochloa crus-galli); assay: Test C flooded paddy test plant response; conditions: Flood, 250 g ai/ha; scale of 0 to 100 where 0 is no effect and 100 is complete control; 13 to 15 days
Summary of the method: as §3

[10] = test system: ducksalad (Heteranthera limosa); assay: Test C flooded paddy test plant response; conditions: Flood, 250 g ai/ha; scale of 0 to 100 where 0 is no effect and 100 is complete control; 13 to 15 days
Summary of the method: as §3

[11] = test system: small-flower umbrella sedge (Cyperus difformis); assay: Test C flooded paddy test plant response; conditions: Flood, 250 g ai/ha; scale of 0 to 100 where 0 is no effect and 100 is complete control; 13 to 15 days
Summary of the method: as §3

[12] = 125 g ai/ha, postemergence, 0 to 100 scale, 0 no effect, 100 complete control
[13] = Postemergence, 31 g ai/ha, 0 to 100 scale (0 no effect, 100 complete control)
[14] = 31 g ai/ha, Preemergence, 0 to 100 scale where 0 is no effect and 100 is complete control
[15] = Preemergence, 125 g ai/ha, 0 to 100 scale (0 no effect, 100 complete control)

C=C(C)c1cc(-c2ccccc2Oc2ncc(Br)cn2)on1 [Compound 197]
Plant response rating, Blackgrass [1, 12]: 0 | Plant response rating, Blackgrass [1, 13]: 0 | Plant response rating, Galium [2, 12]: 50 | Plant response rating, Galium [2, 13]: 10 | Plant response rating, Kochia (kochia (Kochia scoparia); [14]): 0 | Plant response rating, Kochia (kochia (Kochia scoparia); [12]): 0 | Plant response rating, Kochia (kochia (Kochia scoparia); [13]): 0 | Kochia plant response rating (kochia (Kochia scoparia); [15]): 0 | Plant response rating, Barnyardgrass [3, 14]: 0 | Plant response rating, Barnyardgrass [3, 12]: 0 | Plant response rating, Barnyardgrass [3, 13]: 0 | Barnyardgrass plant response rating [3, 15]: 0 | Plant response rating, Corn (corn (Zea mays); [12]): 0 | Plant response rating, Corn (corn (Zea mays); [13]): 0 | Plant response rating, Ryegrass, Italian [4, 14]: 0 | Plant response rating, Ryegrass, Italian [4, 12]: 0 | Plant response rating, Ryegrass, Italian [4, 13]: 0 | Ryegrass, Italian plant response rating [4, 15]: 0 | Plant response rating, Foxtail, Giant [5, 14]: 0 | Plant response rating, Foxtail, Giant [5, 12]: 0 | Plant response rating, Foxtail, Giant [5, 13]: 0 | Foxtail, Giant plant response rating [5, 15]: 0 | Plant response rating, Pigweed [6, 14]: 0 | Plant response rating, Pigweed [6, 12]: 10 | Plant response rating, Pigweed [6, 13]: 10 | Pigweed plant response rating [6, 15]: 0 | Plant response rating, Wheat [7, 12]: 0 | Plant response rating, Wheat [7, 13]: 0 | Plant response rating, Ragweed [8, 14]: 0 | Plant response rating, Ragweed [8, 12]: 0 | Plant response rating, Ragweed [8, 13]: 0 | Ragweed plant response rating [8, 15]: 0 | Rice plant response rating (rice (Oryza sativa)): 0 | Barnyardgrass plant response rating [9]: 20 | Ducksalad plant response rating [10]: 0 | Sedge, Umbrella plant response rating [11]: 0

Fc1cnc(Oc2ccccc2-c2cc(C(F)F)no2)nc1 [Compound 210]
Plant response rating, Blackgrass [1, 12]: 30 | Plant response rating, Blackgrass [1, 13]: 10 | Plant response rating, Galium [2, 12]: 90 | Plant response rating, Galium [2, 13]: 50 | Plant response rating, Kochia (kochia (Kochia scoparia); [14]): 50 | Plant response rating, Kochia (kochia (Kochia scoparia); [12]): 80 | Plant response rating, Kochia (kochia (Kochia scoparia); [13]): 50 | Kochia plant response rating (kochia (Kochia scoparia); [15]): 90 | Plant response rating, Barnyardgrass [3, 14]: 10 | Plant response rating, Barnyardgrass [3, 12]: 0 | Plant response rating, Barnyardgrass [3, 13]: 0 | Barnyardgrass plant response rating [3, 15]: 80 | Plant response rating, Corn (corn (Zea mays); [12]): 10 | Plant response rating, Corn (corn (Zea mays); [13]): 0 | Plant response rating, Ryegrass, Italian [4, 14]: 0 | Plant response rating, Ryegrass, Italian [4, 12]: 0 | Plant response rating, Ryegrass, Italian [4, 13]: 0 | Ryegrass, Italian plant response rating [4, 15]: 10 | Plant response rating, Foxtail, Giant [5, 14]: 40 | Plant response rating, Foxtail, Giant [5, 12]: 40 | Plant response rating, Foxtail, Giant [5, 13]: 0 | Foxtail, Giant plant response rating [5, 15]: 90 | Plant response rating, Pigweed [6, 14]: 100 | Plant response rating, Pigweed [6, 12]: 80 | Plant response rating, Pigweed [6, 13]: 50 | Pigweed plant response rating [6, 15]: 100 | Plant response rating, Wheat [7, 12]: 20 | Plant response rating, Wheat [7, 13]: 0 | Plant response rating, Ragweed [8, 14]: 0 | Plant response rating, Ragweed [8, 12]: 30 | Plant response rating, Ragweed [8, 13]: 10 | Ragweed plant response rating [8, 15]: 20 | Rice plant response rating (rice (Oryza sativa)): 0 | Barnyardgrass plant response rating [9]: 0 | Ducksalad plant response rating [10]: 85 | Sedge, Umbrella plant response rating [11]: 40

Cc1cnc(Oc2ccccc2-c2cc(C(F)F)no2)nc1 [Compound 211]
Plant response rating, Blackgrass [1, 12]: 50 | Plant response rating, Blackgrass [1, 13]: 10 | Plant response rating, Galium [2, 12]: 100 | Plant response rating, Galium [2, 13]: 60 | Plant response rating, Kochia (kochia (Kochia scoparia); [14]): 20 | Plant response rating, Kochia (kochia (Kochia scoparia); [12]): 90 | Plant response rating, Kochia (kochia (Kochia scoparia); [13]): 40 | Kochia plant response rating (kochia (Kochia scoparia); [15]): 80 | Plant response rating, Barnyardgrass [3, 14]: 10 | Plant response rating, Barnyardgrass [3, 12]: 10 | Plant response rating, Barnyardgrass [3, 13]: 0 | Barnyardgrass plant response rating [3, 15]: 50 | Plant response rating, Corn (corn (Zea mays); [12]): 10 | Plant response rating, Corn (corn (Zea mays); [13]): 0 | Plant response rating, Ryegrass, Italian [4, 14]: 0 | Plant response rating, Ryegrass, Italian [4, 12]: 0 | Plant response rating, Ryegrass, Italian [4, 13]: 0 | Ryegrass, Italian plant response rating [4, 15]: 0 | Plant response rating, Foxtail, Giant [5, 14]: 10 | Plant response rating, Foxtail, Giant [5, 12]: 50 | Plant response rating, Foxtail, Giant [5, 13]: 10 | Foxtail, Giant plant response rating [5, 15]: 100 | Plant response rating, Pigweed [6, 14]: 100 | Plant response rating, Pigweed [6, 12]: 50 | Plant response rating, Pigweed [6, 13]: 20 | Pigweed plant response rating [6, 15]: 100 | Plant response rating, Wheat [7, 12]: 0 | Plant response rating, Wheat [7, 13]: 0 | Plant response rating, Ragweed [8, 14]: 0 | Plant response rating, Ragweed [8, 12]: 30 | Plant response rating, Ragweed [8, 13]: 0 | Ragweed plant response rating [8, 15]: 30 | Rice plant response rating (rice (Oryza sativa)): 0 | Barnyardgrass plant response rating [9]: 0 | Ducksalad plant response rating [10]: 70 | Sedge, Umbrella plant response rating [11]: 20

COc1cnc(Oc2ccccc2-c2cc(C(F)F)no2)nc1 [Compound 213]
Plant response rating, Blackgrass [1, 12]: 10 | Plant response rating, Blackgrass [1, 13]: 0 | Plant response rating, Galium [2, 12]: 80 | Plant response rating, Galium [2, 13]: 50 | Plant response rating, Kochia (kochia (Kochia scoparia); [14]): 10 | Plant response rating, Kochia (kochia (Kochia scoparia); [12]): 100 | Plant response rating, Kochia (kochia (Kochia scoparia); [13]): 60 | Kochia plant response rating (kochia (Kochia scoparia); [15]): 50 | Plant response rating, Barnyardgrass [3, 14]: 0 | Plant response rating, Barnyardgrass [3, 12]: 0 | Plant response rating, Barnyardgrass [3, 13]: 0 | Barnyardgrass plant response rating [3, 15]: 40 | Plant response rating, Corn (corn (Zea mays); [12]): 10 | Plant response rating, Corn (corn (Zea mays); [13]): 0 | Plant response rating, Ryegrass, Italian [4, 14]: 0 | Plant response rating, Ryegrass, Italian [4, 12]: 0 | Plant response rating, Ryegrass, Italian [4, 13]: 0 | Ryegrass, Italian plant response rating [4, 15]: 0 | Plant response rating, Foxtail, Giant [5, 14]: 0 | Plant response rating, Foxtail, Giant [5, 12]: 20 | Plant response rating, Foxtail, Giant [5, 13]: 0 | Foxtail, Giant plant response rating [5, 15]: 80 | Plant response rating, Pigweed [6, 14]: 80 | Plant response rating, Pigweed [6, 12]: 80 | Plant response rating, Pigweed [6, 13]: 30 | Pigweed plant response rating [6, 15]: 100 | Plant response rating, Wheat [7, 12]: 10 | Plant response rating, Wheat [7, 13]: 0 | Plant response rating, Ragweed [8, 14]: 0 | Plant response rating, Ragweed [8, 12]: 60 | Plant response rating, Ragweed [8, 13]: 10 | Ragweed plant response rating [8, 15]: 0 | Rice plant response rating (rice (Oryza sativa)): 0 | Barnyardgrass plant response rating [9]: 0 | Ducksalad plant response rating [10]: 75 | Sedge, Umbrella plant response rating [11]: 0

Clc1cnc(Oc2ccccc2-c2cocn2)nc1 [Compound 214]
Plant response rating, Blackgrass [1, 12]: 0 | Plant response rating, Blackgrass [1, 13]: 0 | Plant response rating, Galium [2, 12]: 10 | Plant response rating, Galium [2, 13]: 0 | Plant response rating, Kochia (kochia (Kochia scoparia); [14]): 0 | Plant response rating, Kochia (kochia (Kochia scoparia); [12]): 0 | Plant response rating, Kochia (kochia (Kochia scoparia); [13]): 0 | Kochia plant response rating (kochia (Kochia scoparia); [15]): 0 | Plant response rating, Barnyardgrass [3, 14]: 0 | Plant response rating, Barnyardgrass [3, 12]: 0 | Plant response rating, Barnyardgrass [3, 13]: 0 | Barnyardgrass plant response rating [3, 15]: 0 | Plant response rating, Corn (corn (Zea mays); [12]): 0 | Plant response rating, Corn (corn (Zea mays); [13]): 0 | Plant response rating, Ryegrass, Italian [4, 14]: 0 | Plant response rating, Ryegrass, Italian [4, 12]: 0 | Plant response rating, Ryegrass, Italian [4, 13]: 0 | Ryegrass, Italian plant response rating [4, 15]: 0 | Plant response rating, Foxtail, Giant [5, 14]: 0 | Plant response rating, Foxtail, Giant [5, 12]: 0 | Plant response rating, Foxtail, Giant [5, 13]: 0 | Foxtail, Giant plant response rating [5, 15]: 0 | Plant response rating, Pigweed [6, 14]: 0 | Plant response rating, Pigweed [6, 12]: 10 | Plant response rating, Pigweed [6, 13]: 0 | Pigweed plant response rating [6, 15]: 0 | Plant response rating, Wheat [7, 12]: 0 | Plant response rating, Wheat [7, 13]: 0 | Plant response rating, Ragweed [8, 14]: 0 | Plant response rating, Ragweed [8, 12]: 0 | Plant response rating, Ragweed [8, 13]: 0 | Ragweed plant response rating [8, 15]: 0 | Rice plant response rating (rice (Oryza sativa)): 0 | Barnyardgrass plant response rating [9]: 0 | Ducksalad plant response rating [10]: 0 | Sedge, Umbrella plant response rating [11]: 0
